Source: publication PMC1431542, “Cyclic nucleotide specific phosphodiesterases of Leishmania major” (BMC Microbiology, 2006)

Tests used:
[1] = target: T1, LmjPDEB1 (Leishmania major, UniProt Q6S996); experiment: 3H-cAMP phosphodiesterase assay in yeast lysate; type: cell-based
T1 construct: gene PDEB1; full-length, hemagglutinin-tagged
T1 sequence (Q6S996 1-940): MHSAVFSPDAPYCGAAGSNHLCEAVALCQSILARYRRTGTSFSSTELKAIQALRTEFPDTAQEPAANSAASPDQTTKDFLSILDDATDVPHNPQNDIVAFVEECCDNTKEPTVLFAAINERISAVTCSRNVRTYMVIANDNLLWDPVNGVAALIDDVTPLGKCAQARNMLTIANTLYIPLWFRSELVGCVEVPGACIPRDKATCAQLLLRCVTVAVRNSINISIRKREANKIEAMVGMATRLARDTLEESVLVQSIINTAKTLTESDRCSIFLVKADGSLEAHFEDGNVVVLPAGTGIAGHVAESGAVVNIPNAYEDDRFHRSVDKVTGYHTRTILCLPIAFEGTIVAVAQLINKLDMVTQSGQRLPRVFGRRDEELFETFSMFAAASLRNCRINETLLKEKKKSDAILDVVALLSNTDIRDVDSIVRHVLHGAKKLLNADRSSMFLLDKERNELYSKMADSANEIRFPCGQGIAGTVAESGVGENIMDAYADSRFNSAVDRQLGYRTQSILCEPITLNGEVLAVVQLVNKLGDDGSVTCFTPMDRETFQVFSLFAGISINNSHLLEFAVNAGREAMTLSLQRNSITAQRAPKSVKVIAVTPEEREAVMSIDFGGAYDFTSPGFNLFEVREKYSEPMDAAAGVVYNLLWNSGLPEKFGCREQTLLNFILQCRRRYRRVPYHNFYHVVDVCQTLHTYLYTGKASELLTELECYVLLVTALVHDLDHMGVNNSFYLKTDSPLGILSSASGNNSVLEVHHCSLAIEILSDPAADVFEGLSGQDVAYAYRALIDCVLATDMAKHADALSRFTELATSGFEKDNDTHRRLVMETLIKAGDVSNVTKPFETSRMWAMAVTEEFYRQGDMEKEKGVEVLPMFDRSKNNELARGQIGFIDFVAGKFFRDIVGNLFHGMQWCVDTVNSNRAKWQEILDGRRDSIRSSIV

[2] = target: T2, LmjPDEB2 (Leishmania major, UniProt Q6S997); experiment: biochemical
T2 construct: gene PDEB2; full-length, hemagglutinin-tagged
T2 sequence (Q6S997 entry or part of it): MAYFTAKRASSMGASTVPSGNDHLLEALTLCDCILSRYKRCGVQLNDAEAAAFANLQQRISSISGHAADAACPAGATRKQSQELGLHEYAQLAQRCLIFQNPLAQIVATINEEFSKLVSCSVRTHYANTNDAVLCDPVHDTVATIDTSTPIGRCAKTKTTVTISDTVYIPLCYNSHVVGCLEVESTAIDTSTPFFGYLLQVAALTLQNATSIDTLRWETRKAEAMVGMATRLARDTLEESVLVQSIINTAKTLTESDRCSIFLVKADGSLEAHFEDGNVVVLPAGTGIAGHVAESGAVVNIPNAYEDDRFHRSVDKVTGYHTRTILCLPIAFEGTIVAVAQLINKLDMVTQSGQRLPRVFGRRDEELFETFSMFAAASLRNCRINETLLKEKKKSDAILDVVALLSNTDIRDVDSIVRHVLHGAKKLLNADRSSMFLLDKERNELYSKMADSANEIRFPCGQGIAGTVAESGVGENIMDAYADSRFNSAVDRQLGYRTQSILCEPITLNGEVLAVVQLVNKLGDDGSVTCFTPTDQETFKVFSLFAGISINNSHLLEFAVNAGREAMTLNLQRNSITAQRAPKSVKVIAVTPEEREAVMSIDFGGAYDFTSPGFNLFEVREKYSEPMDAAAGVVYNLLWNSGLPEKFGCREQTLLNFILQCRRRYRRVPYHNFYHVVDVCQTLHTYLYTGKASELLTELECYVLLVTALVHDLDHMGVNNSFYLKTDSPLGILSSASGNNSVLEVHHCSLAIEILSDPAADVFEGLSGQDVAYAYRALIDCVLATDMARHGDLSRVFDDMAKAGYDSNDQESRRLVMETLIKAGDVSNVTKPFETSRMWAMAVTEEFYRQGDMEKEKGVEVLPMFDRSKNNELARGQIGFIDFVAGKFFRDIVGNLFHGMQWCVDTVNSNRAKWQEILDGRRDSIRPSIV

Compound | 3H-cAMP phosphodiesterase assay in yeast lysate [1] | IC50 [2]
CCOC(=O)c1cnc2c(cnn2CC)c1NN=C(C)C [compound 3, etazolate] | Only dipyridamole, trequinsin and etazolate exhibited at least a moderate potency. | 
COc1cc2c(cc1OC)-c1c/c(=N\c3c(C)cc(C)cc3C)n(C)c(=O)n1CC2 [compound 9, trequinsin] | Only dipyridamole, trequinsin and etazolate exhibited at least a moderate potency. | 96 µM
OCCN(CCO)c1nc(N2CCCCC2)c2nc(N(CCO)CCO)nc(N3CCCCC3)c2n1 [compound 4, dipyridamole] | Only dipyridamole, trequinsin and etazolate exhibited at least a moderate potency. | 29 µM
